# Data: PubChem BioAssay (NCI)
#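 Where inhibition never reached the appropriate level, the endpoint shown equals the highest concentration tested. Otherwise, values were interpolated linearly from a five-concentration, 48-hour dose response in 96-well plates. Here, GI50 denotes the concentration required for 50% inhibition of growth. TGI denotes the concentration required for complete inhibition of growth.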
# Experiments:
# Assay in all cases: NCI tumour cell line growth inhibition, 48 h
# [1] = tested on: 786-0 renal
# [2] = tested on: A498 renal
# [3] = tested on: A549 NSCLC
# [4] = tested on: ACHN renal
# [5] = tested on: BT-549 breast
# [6] = tested on: CAKI-1 renal
# [7] = tested on: CCRF-CEM leukemia
# [8] = tested on: COLO 205 colon
# [9] = tested on: DU-145 prostate
# [10] = tested on: EKVX NSCLC
# [11] = tested on: HCC-2998 colon
# [12] = tested on: HCT-116 colon
# [13] = tested on: HCT-15 colon
# [14] = tested on: HL-60(TB) leukemia
# [15] = tested on: HOP-62 NSCLC
# [16] = tested on: HOP-92 NSCLC
# [17] = tested on: HS 578T breast
# [18] = tested on: HT29 colon
# [19] = tested on: IGROV1 ovarian
# [20] = tested on: K-562 leukemia
# [21] = tested on: KM12 colon
# [22] = tested on: LOX IMVI melanoma
# [23] = tested on: M14 melanoma
# [24] = tested on: MALME-3M melanoma
# [25] = tested on: MCF7 breast
# [26] = tested on: MDA-MB-231 breast
# [27] = tested on: MDA-MB-435
# [28] = tested on: MOLT-4 leukemia
# [29] = tested on: NCI-H226 lung
# [30] = tested on: NCI-H23 lung
# [31] = tested on: NCI-H460 lung
# [32] = tested on: NCI-H522 lung
# [33] = tested on: NCI/ADR-RES ovarian
# [34] = tested on: OVCAR-3 ovarian
# [35] = tested on: OVCAR-4 ovarian
# [36] = tested on: OVCAR-5 ovarian
# [37] = tested on: OVCAR-8 ovarian
# [38] = tested on: PC-3 prostate
# [39] = tested on: RPMI-8226 leukemia
# [40] = tested on: RXF 393 renal
# [41] = tested on: SF-268 CNS
# [42] = tested on: SF-295 CNS
# [43] = tested on: SF-539 CNS
# [44] = tested on: SK-MEL-2 melanoma
# [45] = tested on: SK-MEL-28 melanoma
# [46] = tested on: SK-MEL-5 melanoma
# [47] = tested on: SK-OV-3 ovarian
# [48] = tested on: SN12C renal
# [49] = tested on: SNB-19 CNS
# [50] = tested on: SNB-75 CNS
# [51] = tested on: SR leukemia
# [52] = tested on: SW-620 colon
# [53] = tested on: T-47D breast
# [54] = tested on: TK-10 renal
# [55] = tested on: U251 CNS
# [56] = tested on: UACC-257 melanoma
# [57] = tested on: UACC-62 melanoma
# [58] = tested on: UO-31 renal
smiles,measurement,setting,value
Cn1cc(-c2cnc3ccc4ccc(CS(=O)(=O)NCc5ccccn5)cc4c(=O)c3c2)cn1,GI50,[1],27 µM
same,TGI,[1],> 100 µM
same,GI50,[2],18.1 µM
same,TGI,[2],> 55.6 µM
same,GI50,[3],25.2 µM
same,TGI,[3],> 100 µM
same,GI50,[4],16.4 µM
same,TGI,[4],> 100 µM
same,GI50,[5],12.4 µM
same,TGI,[5],42.6 µM
same,GI50,[6],14.2 µM
same,TGI,[6],> 100 µM
same,GI50,[7],9.08 µM
same,TGI,[7],> 93.8 µM
same,GI50,[8],18.6 µM
same,TGI,[8],> 55.8 µM
same,GI50,[9],33.7 µM
same,TGI,[9],> 100 µM
same,GI50,[10],44.9 µM
same,TGI,[10],> 100 µM
same,GI50,[11],13.4 µM
same,TGI,[11],27.9 µM
same,GI50,[12],16.3 µM
same,TGI,[12],54.1 µM
same,GI50,[13],5.67 µM
same,TGI,[13],37.1 µM
same,GI50,[14],9.15 µM
same,TGI,[14],41.8 µM
same,GI50,[15],17.6 µM
same,TGI,[15],> 100 µM
same,GI50,[16],6.19 µM
same,TGI,[16],> 77.3 µM
same,GI50,[17],14 µM
same,TGI,[17],> 100 µM
same,GI50,[18],15.1 µM
same,TGI,[18],> 100 µM
same,GI50,[19],22.1 µM
same,TGI,[19],> 100 µM
same,GI50,[20],4.78 µM
same,TGI,[20],> 100 µM
same,GI50,[21],10.5 µM
same,TGI,[21],52 µM
same,GI50,[22],13.5 µM
same,TGI,[22],35.3 µM
same,GI50,[23],11.9 µM
same,TGI,[23],33.6 µM
same,GI50,[24],21.3 µM
same,TGI,[24],73.1 µM
same,GI50,[25],7.7 µM
same,TGI,[25],> 100 µM
same,GI50,[26],19.6 µM
same,TGI,[26],> 68.4 µM
same,GI50,[27],3.33 µM
same,TGI,[27],27.5 µM
same,GI50,[28],9.09 µM
same,TGI,[28],52.5 µM
same,GI50,[29],14.8 µM
same,TGI,[29],36 µM
same,GI50,[30],16.2 µM
same,TGI,[30],> 84.7 µM
same,GI50,[31],15.7 µM
same,TGI,[31],49.7 µM
same,GI50,[32],22 µM
same,TGI,[32],> 95.9 µM
same,GI50,[33],23.5 µM
same,TGI,[33],> 100 µM
same,GI50,[34],14.6 µM
same,TGI,[34],45.8 µM
same,GI50,[35],10.3 µM
same,TGI,[35],68.1 µM
same,GI50,[36],29.5 µM
same,TGI,[36],> 100 µM
same,GI50,[37],18.8 µM
same,TGI,[37],> 100 µM
same,GI50,[38],31.3 µM
same,TGI,[38],> 100 µM
same,GI50,[39],11.6 µM
same,TGI,[39],> 75.2 µM
same,GI50,[40],12.9 µM
same,TGI,[40],35.1 µM
same,GI50,[41],20.9 µM
same,TGI,[41],> 100 µM
same,GI50,[42],3.61 µM
same,TGI,[42],> 100 µM
same,GI50,[43],16.9 µM
same,TGI,[43],41.2 µM
same,GI50,[44],11.8 µM
same,TGI,[44],53.4 µM
same,GI50,[45],15 µM
same,TGI,[45],35.4 µM
same,GI50,[46],11.3 µM
same,TGI,[46],24 µM
same,GI50,[47],26.5 µM
same,TGI,[47],> 100 µM
same,GI50,[48],19 µM
same,TGI,[48],> 93.3 µM
same,GI50,[49],26.6 µM
same,TGI,[49],> 100 µM
same,GI50,[50],6.45 µM
same,TGI,[50],47.8 µM
same,GI50,[51],3.17 µM
same,TGI,[51],> 100 µM
same,GI50,[52],15.6 µM
same,TGI,[52],> 100 µM
same,GI50,[53],16.4 µM
same,TGI,[53],> 93 µM
same,GI50,[54],21.6 µM
same,TGI,[54],> 83.1 µM
same,GI50,[55],21.6 µM
same,TGI,[55],> 100 µM
same,GI50,[56],15 µM
same,TGI,[56],32.2 µM
same,GI50,[57],12.5 µM
same,TGI,[57],39.4 µM
same,GI50,[58],12.6 µM
same,TGI,[58],> 100 µM
